Read-outs that look alike come from different tables or passages of the source.
Tested on: Sprague-Dawley rats
Assay: Hematology
Type: in vivo, Rattus norvegicus
Design: HCT, Hematocrit: unit not given here
Conditions: for Emax: Rattus norvegicus; for Basophils / Eosinophils / HB, Hemoglobin / HCT, Hematocrit / Lymphocytes / MCH, Mean corpuscular hemoglobin / MCHC, Mean corpuscular hemoglobin concentration / MCV, Mean corpuscular volume / MPV, Mean platelet volume / Monocytes / Neutrophils / PDW, Platelet distribution width / PLT, Platelet count / RBC, Red cell count / WBC, Leukocyte total count: group mean
Method: Basic blood picture analysis was carried out using Advia 120 analyzer (Bayer, later Siemens Diagnostic Division, Dublin, Ireland). This analysis includes red cell count (RBC), hemoglobin (HB), hematocrit (HCT), platelet count (PLT), leukocyte total count (WBC) and differential count as well as the calculated red cell and platelet parameters mean corpuscular volume (MCV), mean corpuscular hemoglobin (MCH), mean corpuscular hemoglobin concentration (MCHC), red cell distribution width - standard deviation (RDW-SD), platelet distribution width (PDW) and mean platelet volume (MPV). Blood cell counting is based on isovolumetric sphering and fixing the cells, stains and light scattering. Visual leukocyte differential counting was done after May-Grünwald-Giemsa staining.
Data were also analyzed using the BMD method, which is based on dose-response modeling of the full data set using a nested family of exponential and Hill models. The analyses were done on data of males and females combined, using sex as a covariate. […] In that case, different Critical Effect Doses (CEDs) and CEDs at the lowest bound of the confidence interval (CED-L) were generated for each sex. If no difference between sexes is detected, a CED and CED-Ls for the combined data is generated. However, this was also done if the curve fits are close, and separate analyses for males and females were then performed manually. CEDs and CED-Ls were calculated at the predefined Critical Effect Size (CES) of 5% (EFSA standard) or 10%.

[1] = F, CES 5%, model E2, adipose tissue concentration based
[2] = F, CES 5%, model E3, adipose tissue concentration based
[3] = F, CES 10%, model E2, adipose tissue concentration based
[4] = F, CES 10%, model E3, adipose tissue concentration based
[5] = M, CES 5%, model E4, adipose tissue concentration based
[6] = M, CES 10%, model E4, adipose tissue concentration based
[7] = females, total dose 3 mg/kg bw, N=5
[8] = females, total dose 10 mg/kg bw, N=5
[9] = females, total dose 30 mg/kg bw, N=5
[10] = females, total dose 100 mg/kg bw, N=5
[11] = females, total dose 300 mg/kg bw, N=5
[12] = females, total dose 1000 mg/kg bw, N=5
[13] = females, total dose 1000 mg/kg bw, N=5, p<0.01 vs. control
[14] = females, total dose 1700 mg/kg bw, N=5

## Clc1cc(Cl)c(-c2cc(Cl)c(Cl)c(Cl)c2Cl)cc1Cl [PCB 180, 2,2′,3′,4,4′,5,5′-heptachlorobiphenyl]
[1]
  CED, Hematocrit: 5430 µg/g lipid
  CED, Hemoglobin: 4840 µg/g lipid
  CED, Red blood cell count: 4170 µg/g lipid
  CED-L, Hematocrit: 4178 µg/g lipid
  CED-L, Hemoglobin: 3889 µg/g lipid
  CED-L, Red blood cell count: 3327 µg/g lipid
[2]
  CED, Red cell distribution width - SD: 8370 µg/g lipid
  CED-L, Red cell distribution width - SD: 5756 µg/g lipid
[3]
  CED, Hematocrit: 11100 µg/g lipid
  CED, Hemoglobin: 9930 µg/g lipid
  CED, Red blood cell count: 8560 µg/g lipid
  CED-L, Hematocrit: 8582 µg/g lipid
  CED-L, Hemoglobin: 7989 µg/g lipid
  CED-L, Red blood cell count: 6834 µg/g lipid
[4]
  CED, Red cell distribution width - SD: 10700 µg/g lipid
  CED-L, Red cell distribution width - SD: 9281 µg/g lipid
[5]
  CED, Hematocrit: 601 µg/g lipid
  CED, Hemoglobin: 872 µg/g lipid
  CED, Platelet count: 156 µg/g lipid
  CED, Red blood cell count: 598 µg/g lipid
  CED-L, Hematocrit: 247 µg/g lipid
  CED-L, Hemoglobin: 227 µg/g lipid
  CED-L, Platelet count: 36.4 µg/g lipid
  CED-L, Red blood cell count: 337 µg/g lipid
[6]
  CED, Hematocrit: 2090 µg/g lipid
  CED, Platelet count: 539 µg/g lipid
  CED, Red blood cell count: 1890 µg/g lipid
Erythrocyte, F, model E2, controls vs high dose according to the fitted model, read-out: Maximum response, Red blood cell count
  Emax: -13%
Erythrocyte, females, controls vs high dose, fitted model, read-out: Red blood cell count, Maximum response
  Emax: -12.8%
Erythrocyte, males, controls vs high dose, fitted model, read-out: Red blood cell count, Maximum response
  Emax: -12.5%
Erythrocyte, model E4, controls vs high dose according to the fitted model, read-out: Maximum response, Red blood cell count
  Emax: -12.4%
F, model E2, controls vs high dose according to the fitted model, read-out: Maximum response, Hematocrit
  Emax: -10.1%
F, model E2, controls vs high dose according to the fitted model, read-out: Maximum response, Hemoglobin
  Emax: -11.3%
F, model E3, controls vs high dose according to the fitted model, read-out: Maximum response, Red cell distribution width - SD
  Emax: 11.1%
Platelet, males, controls vs high dose, fitted model, read-out: Platelet count, Maximum response
  Emax: 12%
Platelet, model E4, controls vs high dose according to the fitted model, read-out: Maximum response, Platelet count
  Emax: 12%
females, controls vs high dose, fitted model, read-out: Hematocrit, Maximum response
  Emax: -10%
females, controls vs high dose, fitted model, read-out: Hemoglobin, Maximum response
  Emax: -11.1%
females, controls vs high dose, fitted model, read-out: Red cell distribution width - SD, Maximum response
  Emax: 11.5%
males, controls vs high dose, fitted model, read-out: Hematocrit, Maximum response
  Emax: -11.8%
males, controls vs high dose, fitted model, read-out: Hemoglobin, Maximum response
  Emax: -8.6%
Model E4, controls vs high dose according to the fitted model, read-out: Maximum response, Hematocrit
  Emax: -11.7%
Model E4, controls vs high dose according to the fitted model, read-out: Maximum response, Hemoglobin
  Emax: -8.59%
[7]
  Basophils: 0.0%
  Eosinophils: 1.2%
  HB, Hemoglobin: 165 g/L
  HCT, Hematocrit: 0.44
  Lymphocytes: 88.4%
  MCH, Mean corpuscular hemoglobin: 23.1 pg
  MCHC, Mean corpuscular hemoglobin concentration: 371 g/L
  MCV, Mean corpuscular volume: 62.3 fL
  MPV, Mean platelet volume: 6.74 fL
  Monocytes: 2.6%
  Neutrophils: 7.8%
  PDW, Platelet distribution width: 7.26 fL
  PLT, Platelet count: 8.17e+11 L⁻¹
  RBC, Red cell count: 7.15e+12 L⁻¹
  WBC, Leukocyte total count: 1.422e+10 L⁻¹
[8]
  Basophils: 0.0%
  Eosinophils: 0.2%
  HB, Hemoglobin: 166 g/L
  HCT, Hematocrit: 0.45
  Lymphocytes: 92.0%
  MCH, Mean corpuscular hemoglobin: 23.0 pg
  MCHC, Mean corpuscular hemoglobin concentration: 372 g/L
  MCV, Mean corpuscular volume: 61.8 fL
  MPV, Mean platelet volume: 6.72 fL
  Monocytes: 2%
  Neutrophils: 5.8%
  PDW, Platelet distribution width: 7.20 fL
  PLT, Platelet count: 8.05e+11 L⁻¹
  RBC, Red cell count: 7.23e+12 L⁻¹
  WBC, Leukocyte total count: 1.276e+10 L⁻¹
[9]
  Basophils: 0.0%
  Eosinophils: 1.6%
  HB, Hemoglobin: 165 g/L
  HCT, Hematocrit: 0.45
  Lymphocytes: 88.8%
  MCH, Mean corpuscular hemoglobin: 22.9 pg
  MCHC, Mean corpuscular hemoglobin concentration: 368 g/L
  MCV, Mean corpuscular volume: 62.2 fL
  MPV, Mean platelet volume: 6.74 fL
  Monocytes: 1.4%
  Neutrophils: 8.2%
  PDW, Platelet distribution width: 7.32 fL
  PLT, Platelet count: 8.47e+11 L⁻¹
  RBC, Red cell count: 7.22e+12 L⁻¹
  WBC, Leukocyte total count: 1.544e+10 L⁻¹
[10]
  Basophils: 0.0%
  Eosinophils: 0.8%
  HB, Hemoglobin: 169 g/L
  HCT, Hematocrit: 0.46
  Lymphocytes: 90.8%
  MCH, Mean corpuscular hemoglobin: 22.8 pg
  MCHC, Mean corpuscular hemoglobin concentration: 370 g/L
  MCV, Mean corpuscular volume: 61.6 fL
  MPV, Mean platelet volume: 6.72 fL
  Monocytes: 1.4%
  Neutrophils: 7.0%
  PDW, Platelet distribution width: 7.14 fL
  PLT, Platelet count: 8.74e+11 L⁻¹
  RBC, Red cell count: 7.4e+12 L⁻¹
  WBC, Leukocyte total count: 1.654e+10 L⁻¹
[11]
  Basophils: 0.0%
  Eosinophils: 1.2%
  HB, Hemoglobin: 166 g/L
  HCT, Hematocrit: 0.45
  Lymphocytes: 90.6%
  MCH, Mean corpuscular hemoglobin: 23.1 pg
  MCHC, Mean corpuscular hemoglobin concentration: 371 g/L
  MCV, Mean corpuscular volume: 62.2 fL
  MPV, Mean platelet volume: 6.98 fL
  Monocytes: 2.2%
  Neutrophils: 6.0%
  PDW, Platelet distribution width: 7.58 fL
  PLT, Platelet count: 8.2e+11 L⁻¹
  RBC, Red cell count: 7.19e+12 L⁻¹
  WBC, Leukocyte total count: 1.448e+10 L⁻¹
[12]
  Basophils: 0.0%
  Eosinophils: 1.2%
  Lymphocytes: 89.8%
  MCH, Mean corpuscular hemoglobin: 23.1 pg
  MCHC, Mean corpuscular hemoglobin concentration: 366 g/L
  MCV, Mean corpuscular volume: 63.2 fL
  MPV, Mean platelet volume: 6.74 fL
  Monocytes: 3.2%
  Neutrophils: 5.8%
  PDW, Platelet distribution width: 7.26 fL
  PLT, Platelet count: 8.69e+11 L⁻¹
  WBC, Leukocyte total count: 1.392e+10 L⁻¹
[13]
  HB, Hemoglobin: 154 g/L
  RBC, Red cell count: 6.66e+12 L⁻¹
females, total dose 1000 mg/kg bw, N=5, p<0.05 vs. control
  HCT, Hematocrit: 0.42
[14]
  Basophils: 0.0%
  Eosinophils: 1.0%
  Lymphocytes: 87.6%
  MCH, Mean corpuscular hemoglobin: 23.3 pg
  MCHC, Mean corpuscular hemoglobin concentration: 366 g/L
  MCV, Mean corpuscular volume: 63.7 fL
  MPV, Mean platelet volume: 6.68 fL
  Monocytes: 2.2%
  Neutrophils: 9.2%
  PDW, Platelet distribution width: 7.18 fL
  PLT, Platelet count: 8.28e+11 L⁻¹
  WBC, Leukocyte total count: 1.35e+10 L⁻¹
females, total dose 1700 mg/kg bw, N=5, p<0.001 vs. control
  HB, Hemoglobin: 150 g/L

— publication PMC4138103 (PLoS ONE, 2014)
